Measured values reported in US11981679B2, “Tricyclic compounds, compositions and medicinal applications thereof” (IMPETIS BIOSCIENCES LTD., priority 2018, dated 2024).

Assays:
A2B adenosine receptor = molecular target: T1, A2B adenosine receptor (Homo sapiens, UniProt P29275); test: cAMP assay for adenosine receptor (HTRF), HEK-A2B; assay type: cell-based; details: HEK-A2B cells, agonist 70 nM NECA, read-out: A2B Functional Ki
T1 construct: expressed in transfected cells; host or cells: HEK-293 (HEK-A2B)
T1 sequence (P29275 1-332): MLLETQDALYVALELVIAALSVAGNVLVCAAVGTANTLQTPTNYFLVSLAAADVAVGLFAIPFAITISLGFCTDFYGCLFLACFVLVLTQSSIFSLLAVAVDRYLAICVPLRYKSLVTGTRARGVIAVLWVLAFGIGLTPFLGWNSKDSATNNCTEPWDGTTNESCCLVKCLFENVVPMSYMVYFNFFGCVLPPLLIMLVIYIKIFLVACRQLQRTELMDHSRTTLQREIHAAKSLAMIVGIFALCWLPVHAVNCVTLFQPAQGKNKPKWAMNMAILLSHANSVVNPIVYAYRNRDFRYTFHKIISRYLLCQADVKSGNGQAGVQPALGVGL
Method: (§1) cAMP Assay for Adenosine Receptor.
(§2) The functional activity of test compounds on A2A and A2B adenosine receptors and selectivity over A1 adenosine was determined using HTRF based cAMP assay (Cisbio). Briefly, overnight seeded cultures (HEK-A1, HEK-A2A, HEK-A2B) were treated with 1U/ml ADA for 90 minutes at 37° C. and 5% CO2. Cell suspensions were treated with increasing concentrations of test compounds for 15 minutes followed by treatment with agonists for 15 minutes (1 nM CPA for HEK-A1 and 70 nM NECA for HEK-A2B) or 30 min (10 nM CGS-21680 for HEK-A2A) at room temperature with continuous mixing in incomplete DMEM supplemented with 1U/ml ADA. Rolipram (20 μM) was included in the assay for A1 and A2A adenosine receptors. For functional activity of HEK-A1, cell suspensions were further treated with forskolin for 30 minutes at room temperature with constant mixing. cAMP levels were quantified using a Flex Station III (Molecular Devices) at an excitation maximum of 313 nm and emission maxima of 620 nm and 665 nm. Data was analyzed using GraphPad Prism to generate IC50 and Ki. The biological activity data is provided in the Table below. <10 nM are represented as ++++, 10-30 nM as +++, 30-100 nM ++ and the K, value >100 nM as +.

A2A adenosine receptor = molecular target: T2, A2A adenosine receptor (Homo sapiens, UniProt P29274); test: cAMP assay for adenosine receptor (HTRF), HEK-A2A; assay type: cell-based; details: HEK-A2A cells, agonist 10 nM CGS-21680, Rolipram 20 μM, read-out: A2A Functional Ki
T2 construct: expressed in transfected cells; host or cells: HEK-293 (HEK-A2A)
Method: as §1, §2

T2 sequence (P29274 whole entry): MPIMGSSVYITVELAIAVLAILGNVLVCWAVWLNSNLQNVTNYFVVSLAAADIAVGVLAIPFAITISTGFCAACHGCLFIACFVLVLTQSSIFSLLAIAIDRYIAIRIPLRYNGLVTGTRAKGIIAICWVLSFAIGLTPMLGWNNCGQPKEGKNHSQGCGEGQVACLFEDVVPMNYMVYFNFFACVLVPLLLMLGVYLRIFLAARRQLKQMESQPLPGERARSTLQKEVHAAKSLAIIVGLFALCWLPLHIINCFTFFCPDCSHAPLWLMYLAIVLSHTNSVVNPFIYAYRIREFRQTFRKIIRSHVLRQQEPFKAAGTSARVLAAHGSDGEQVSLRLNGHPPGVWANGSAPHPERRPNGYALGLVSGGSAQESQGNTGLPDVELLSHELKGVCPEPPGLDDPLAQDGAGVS

Row | Compound | Ki (A2B adenosine receptor) [nM] | Ki (A2A adenosine receptor) [nM]
1 | CCCn1c(=O)c2[nH]c(-c3cnn(Cc4cccc(C(F)(F)F)c4)c3)nc2n2ccnc12 [Example A1, 5-propyl-2-[1-[[3-(trifluoromethyl)phenyl]methyl]pyrazol-4-yl]-3H-imidazo[2,1-b]purin-4-one] | < 10 | < 10
2 | Cn1c(=O)c2[nH]c(-c3cnn(Cc4cccc(C(F)(F)F)c4)c3)nc2n2ccnc12 [Example A3, 5-methyl-2-[1-[[3-(trifluoromethyl)phenyl]methyl]pyrazol-4-yl]-3H-imidazo[2,1-b]purin-4-one] | < 10 | 10 to 30
3 | CCCn1c(=O)c2[nH]c(-c3cnn(CCc4cccc(F)c4)c3)nc2n2ccnc12 [Example A5, 2-[1-[2-(3-fluorophenyl)ethyl]pyrazol-4-yl]-5-propyl-3H-imidazo[2,1-b]purin-4-one] | – | 30 to 100
4 | CCCn1c(=O)c2[nH]c(-c3cnn(C)c3)nc2n2ccnc12 [Example A6, 2-(1-methylpyrazol-4-yl)-5-propyl-3H-imidazo[2,1-b]purin-4-one] | – | > 100
5 | CCCn1c(=O)c2[nH]c(-c3cnn(C(C)(C)CC)c3)nc2n2ccnc12 [Example A7, 2-[1-(1,1-dimethylpropyl)pyrazol-4-yl]-5-propyl-3H-imidazo[2,1-b]purin-4-one] | < 10 | < 10
6 | CCCn1c(=O)c2[nH]c(-c3cnn(CC#Cc4cccc(C(=O)OCC)c4)c3)nc2n2ccnc12 [Example B2, Ethyl 3-[3-[4-(4-oxo-5-propyl-3H-imidazo[2,1-b]purin-2-yl)pyrazol-1-yl]prop-1-ynyl]benzoate] | < 10 | 10 to 30
7 | CCCn1c(=O)c2[nH]c(-c3cnn(CC#Cc4cccc(OC(F)(F)F)c4)c3)nc2n2ccnc12 [Example B3, 5-propyl-2-[1-[3-[3-(trifluoromethoxy)phenyl]prop-2-ynyl]pyrazol-4-yl]-3H-imidazo[2,1-b]purin-4-one] | < 10 | 10 to 30
8 | CCCn1c(=O)c2[nH]c(-c3cnn(CC#Cc4cc(C(=O)OCC)ccc4C)c3)nc2n2ccnc12 [Example B6, Ethyl 4-methyl-3-[3-[4-(4-oxo-5-propyl-3H-imidazo[2,1-b]purin-2-yl)pyrazol-1-yl]prop-1-ynyl]benzoate] | < 10 | 30 to 100
9 | CCCn1c(=O)c2[nH]c(-c3cnn(Cc4cccc(C#N)c4)c3)nc2n2ccnc12 [Example B7, 3-[[4-(4-oxo-5-propyl-3H-imidazo[2,1-b]purin-2-yl)pyrazol-1-yl]methyl]benzonitrile] | < 10 | < 10
10 | CCCn1c(=O)c2[nH]c(-c3cnn(C(C)C)c3)nc2n2ccnc12 [Example B8, 2-(1-isopropylpyrazol-4-yl)-5-propyl-3H-imidazo[2,1-b]purin-4-one] | < 10 | 10 to 30
11 | CCCCn1cc(-c2nc3c([nH]2)c(=O)n(CCC)c2nccn32)cn1 [Example B9, 2-(1-butylpyrazol-4-yl)-5-propyl-3H-imidazo[2,1-b]purin-4-one] | < 10 | 10 to 30
12 | CCCn1c(=O)c2[nH]c(-c3cnn(CC)c3)nc2n2ccnc12 [Example B10, 2-(1-ethylpyrazol-4-yl)-5-propyl-3H-imidazo[2,1-b]purin-4-one] | < 10 | 10 to 30
13 | CCCn1c(=O)c2[nH]c(-c3cnn(CCOC)c3)nc2n2ccnc12 [Example B11, 2-[1-(2-methoxyethyl)pyrazol-4-yl]-5-propyl-3H-imidazo[2,1-b]purin-4-one] | 10 to 30 | > 100
14 | CCCn1c(=O)c2[nH]c(-c3cnn(CCN(C)C)c3)nc2n2ccnc12 [Example B12, 2-[1-(2-dimethylaminoethyl)pyrazol-4-yl]-5-propyl-3H-imidazo[2,1-b]purin-4-one] | 10 to 30 | > 100
15 | CCCn1cc(-c2nc3c([nH]2)c(=O)n(CCC)c2nccn32)cn1 [Example B13, 5-propyl-2-(1-propylpyrazol-4-yl)-3H-imidazo[2,1-b]purin-4-one] | < 10 | < 10
16 | CCCn1c(=O)c2[nH]c(-c3cnn(CC(=O)N(C)C)c3)nc2n2ccnc12 [Example B14, N,N-dimethyl-2-[4-(4-oxo-5-propyl-3H-imidazo[2,1-b]purin-2-yl)pyrazol-1-yl]acetamide] | < 10 | > 100
17 | CCCn1c(=O)c2[nH]c(-c3cnn(CC4CCC4)c3)nc2n2ccnc12 [Example B16, 2-[1-(cyclobutylmethyl)pyrazol-4-yl]-5-propyl-3H-imidazo[2,1-b]purin-4-one] | < 10 | < 10
18 | CCCn1c(=O)c2[nH]c(-c3cnn(CC(C)C)c3)nc2n2ccnc12 [Example B17, 2-(1-isobutylpyrazol-4-yl)-5-propyl-3H-imidazo[2,1-b]purin-4-one] | < 10 | 10 to 30
19 | CCCn1c(=O)c2[nH]c(-c3cnn(CC(C)(C)C)c3)nc2n2ccnc12 [Example B19, 2-[1-(2,2-dimethylpropyl)pyrazol-4-yl]-5-propyl-3H-imidazo[2,1-b]purin-4-one] | < 10 | < 10
20 | CCCn1c(=O)c2[nH]c(-c3cnn(C(C)CC)c3)nc2n2ccnc12 (stereo not shown) [Example B20, 5-propyl-2-(1-sec-butylpyrazol-4-yl)-3H-imidazo[2,1-b]purin-4-one] | < 10 | < 10
21 | CCCn1c(=O)c2[nH]c(-c3cnn(CC4CC(=O)N(c5cncc(C(F)(F)F)c5)C4)c3)nc2n2ccnc12 (stereo not shown) [Example C2, 2-[1-[[5-oxo-1-[5-(trifluoromethyl)-3-pyridyl]pyrrolidin-3-yl]methyl]pyrazol-4-yl]-5-propyl-3H-imidazo[2,1-b]purin-4-one] | < 10 | 30 to 100
22 | CCCn1c(=O)c2[nH]c(-c3cnn(CCN4CCCCC4)c3)nc2n2ccnc12 [Example D1, 2-[1-[2-(1-piperidyl)ethyl]pyrazol-4-yl]-5-propyl-3H-imidazo[2,1-b]purin-4-one] | < 10 | 30 to 100
23 | CCCn1c(=O)c2[nH]c(-c3cnn(Cc4cccc(CO)c4)c3)nc2n2ccnc12 [Example E1, 2-[1-[[3-(hydroxymethyl)phenyl]methyl]pyrazol-4-yl]-5-propyl-3H-imidazo[2,1-b]purin-4-one] | < 10 | < 10
24 | CCCn1c(=O)c2[nH]c(-c3cnn(Cc4cccc(C(C)(C)O)c4)c3)nc2n2ccnc12 [Example F1, 2-[1-[[3-(1-hydroxy-1-methyl-ethyl)phenyl]methyl]pyrazol-4-yl]-5-propyl-3H-imidazo[2,1-b]purin-4-one] | < 10 | 10 to 30
25 | CCCn1c(=O)c2[nH]c(-c3cnn(Cc4cccc(C(=O)O)c4)c3)nc2n2ccnc12 [Example G1, 3-[[4-(4-oxo-5-propyl-3H-imidazo[2,1-b]purin-2-yl)pyrazol-1-yl]methyl]benzoic Acid] | < 10 | 10 to 30
26 | CCCn1c(=O)c2[nH]c(-c3cnn(CC(=O)O)c3)nc2n2ccnc12 [Example H1, 2-[4-(4-oxo-5-propyl-3H-imidazo[2,1-b]purin-2-yl)pyrazol-1-yl]acetic acid] | 30 to 100 | > 100
27 | CCCn1c(=O)c2[nH]c(-c3cnn(CC(O)CO)c3)nc2n2ccnc12 (stereo not shown) [Example J1, 2-[1-(2,3-dihydroxypropyl)pyrazol-4-yl]-5-propyl-3H-imidazo[2,1-b]purin-4-one] | 30 to 100 | 30 to 100
